Series [1] concerns MCF-7 human breast cancer cells. Nature of the series: cells. To be noted: for IC90: Homo sapiens, MCF7, 168 h, read-out: D10 (concentration required to effect a 90% reduction in the number of MCF7 cells). The procedure:
Concentrations are shown on the x-axis. […] A longer exposure time (10 days) was employed because this cell line is slower growing than the MCF-7 cell line.
In the case of MCF-7 cells, approximately 2×10^4 MCF-7 cells were seeded into duplicate 25 cm tissue culture flasks containing Dulbecco's modified Eagle's medium supplemented with insulin (10 μg/ml), glucose ([…])and 5% dextran coated charcoal-stripped fetal calf serum to which was added increasing concentrations of the compound to be tested. Cells were allowed to grow for 7 days with one change of medium containing the test compound on day 4. […] Total cell number at each concentration was determined by Coulter counter. […] D (that concentration required to elicit a 90% reduction in cell number relative to the control after 7 days of treatment) was determined for each compound.

The target in series [2] is AEBS (anti-estrogen binding site), rat liver microsomes. Nature of the series: competition with [3H]-tamoxifen for AEBS, rat liver microsomes. The following applies: concentration of cold competitor required to displace 50% of specifically bound label, 1.5 × 10^-9 M [3H]-tamoxifen; read-out: RSBA (M) for AEBS, Rat liver microsomes. From the text: (§1) *Relative specific binding affinity (RSBA) is the concentration of cold
(§2) competitor required to displace 50% of the specifically bound label and
(§3) expresses the affinity of the test compound for the receptor relative to
(§4) that of the labelled specific ligand, in this instance 1.5 ×

The conditions of series [3]: literature; cited from earlier work.
Series [4] has as its target AEBS (anti-estrogen binding site), MCF-7 microsomes. Nature of the series: competition with [3H]-tamoxifen for AEBS, MCF-7 microsomes. More on the design: species or system human. To be noted: for IC50: read-out: RSBA (M) for AEBS, MCF-7 microsomes.
Text: as §1, §2, §3, §4

For series [5], the system named is estrogen receptor (ER). As to the kind of experiment: competition with [3H] 17 β-estradiol for ER. In kind it is binding.
The next series deals with colon carcinoma (3C872). As to the kind of experiment: colon tumor test in female rats implanted with colon carcinoma (3C872). In kind it is in vivo. To be noted: for Tumor wt % of Controls / Tumor Evaluation (wt. mg): intramuscular, twice daily for 7 days; for Tumor Evaluation (wt. mg): control 2261. The procedure: The rats had been subcutaneously implanted with colon carcinoma (3C872) and were cancerous. […] The wt. of the tumor was measured after the 7-day treatment and reported as a % (average) of the control tumor wt. (average) using 40 control rats.

Another series has as its system MCF-7 cells. To be noted: 7 days; for reversal of growth inhibition by estradiol: 1×10^-8 M estradiol; for inhibition of growth of MCF-7 cells: tamoxifen 5×10^-7 M, N,N-DPPE 1x-8x tamoxifen concentration.
Series [6] relates to progesterone receptor (PgR) in MCF-7 cells. Nature of the series: induction of progesterone receptor (PgR) synthesis in MCF-7 cells. In kind it is cell-based, human. The following applies: 5 days of pre-incubation, 1×10^-8 M.
The subject of series [7] is estrogen receptor (ER). To be noted: literature; cited from earlier work.
The mark [8] stands for this setting: concentration of cold competitor required to displace 50% of specifically bound label, 1.5 × 10^-9 M [3H]-tamoxifen.
Where [9] appears, read: microsome preparation not given.

Structures can show the parent of a compound that is named as a salt. Where two headings read alike, the source gives them in different places. Where only a bound is given, the exact number is not on record here.

Regarding `CN(C)CCOc1ccccc1Cc1ccccc1` [Phenyltoloxamine, N,N-dimethyl-2[(2-phenylmethyl)phenoxy]ethanamine, reference compound], the IC90 in series [1] came to 48 µM. The “concentrations at which compound becomes significantly cytotoxic for MCF-7 cells” value in series [1] (human, 10080 min) was above 100 µM. Moreover, the IC50 in series [2] came out at 2e-06 M. Besides, in series [3], the “anti-histamine effects” value is recorded as “pronounced anti-histamine effects”.

Consider `c1ccc(Cc2ccc(OCCN3CCOCC3)cc2)cc1` [MPPE, N-morpholino-2-[(4-phenylmethyl)phenoxy]ethanamine hydrochloride], for which, in [4] (setting [8]), the IC50 stood at 6.6e-07 M. Moreover, the “binding to AEBS” value in series [4] (setting [9]) was “bind significantly to AEBS”. In the series on estrogen receptor (ER) [5], the “binding to ER” value is given as “only weakly to ER”. Besides, the IC90 in [1] is 16 µM.

`C(=C(c1ccccc1)c1ccccc1)c1ccccc1` [Triphenylethylene, triphenylethylene, reference compound]: the “competition with [3H]-tamoxifen for AEBS” value in [4] (at all concentrations tested, microsome preparation not given) was “fails to compete with [^3 H]-tamoxifen for AEBS”. The “RSBA (M) for AEBS, MCF-7 microsomes” value in [4] (setting [8]) was “No affinity”. In addition, in the series on estrogen receptor (ER) [5] (at higher concentrations), the “competition with [3H] 17 β-estradiol for ER” value was “competes with [^3 H] 17 β-estradiol for ER”. Moreover, in series [1], the “cytotoxic effect on MCF-7 cells” value is “no cytotoxic effect on MCF-7 cells after 7 days of exposure”. For the same compound, the “D10 (concentration required to effect a 90% reduction in the number of MCF7 cells)” value in series [1] (7 days of exposure) was “No effect”.

Turning to `CCN(CC)CCOc1ccc(Cc2ccccc2)cc1` [N,N-DPPE, N,N-diethyl-2-[(4-phenylmethyl)phenoxy]ethanamine hydrochloride], the IC50 in series [4] (setting [8]) was found to be 7e-07 M; in series [2] it was 4e-08 M. Besides, in series [4] (setting [9]), the “binding to AEBS” value was “bind significantly to AEBS”. Also, the IC90 in [1] is 16 µM. In addition, the “Tumor wt % of Controls” value in the series with colon carcinoma (3C872) (8.00 mg/kg per injection) was found to be 80%; with colon carcinoma (3C872) (16.00 mg/kg per injection) it was 99%; with colon carcinoma (3C872) (32.00 mg/kg per injection), 68%. The “Tumor Evaluation (wt. mg)” value was 1817 mg with colon carcinoma (3C872) (8.00 mg/kg per injection), 2259 mg in the series on colon carcinoma (3C872) (16.00 mg/kg per injection) and 1557 mg in the series on colon carcinoma (3C872) (32.00 mg/kg per injection). For the same compound, in the series on colon carcinoma (3C872) (32 mg/kg, 7 days), the “reduction in tumor growth” value stood at 30%. Further, the optimal dosage with colon carcinoma (3C872) (7-day test) was in the range of 30 to 40 mg/kg. Also, in the series with colon carcinoma (3C872) (above 60 mg/kg), the “results at higher doses” value is listed as “results became poorer”. Moreover, the “reversal of growth inhibition by estradiol” value with MCF-7 cells was “no significant reversal of its effect by estradiol”. Also, the “inhibition of growth of MCF-7 cells” value in the series with MCF-7 cells (absence of estradiol) is reported as “significant growth inhibition, but in all cases, less than that for tamoxifen”; in the series with MCF-7 cells (presence of estradiol) it was “significantly (P<0.001) more inhibition than tamoxifen”. Further, the “induction of PgR synthesis above control levels” value in [6] is “failure to induce significant syn thesis of progesterone receptor (PgR) above control levels”.

As for `CC/C(=C(\c1ccccc1)c1ccc(OCCN(C)C)cc1)c1ccccc1` [Tamoxifen, 1-(p-β-dimethylaminoethoxyphenyl)-trans-1,2-diphenylbut-1-ene, reference compound], the IC90 in [1] is 4.8 µM. For the same compound, in the series on MCF-7 cells, the “reversal of growth inhibition by estradiol” value is reported as “largely but not completely reversed by the addition of 1×10^-8 M estradiol”. Besides, the “inhibition of growth of MCF-7 cells” value in the series on MCF-7 cells (absence of estradiol) is reported as “Significant inhibition”. Further, the “competition for the estrogen receptor” value with estrogen receptor (ER) [7] was “compete for the estrogen receptor (ER)”.

As for `CCN(CC)CCOc1ccccc1` [N,N-DPEA, N,N-diethyl-2-phenoxyethylamine hydrochloride, reference compound], the IC50 in [4] (setting [8]) was found to be 8e-05 M; in series [2], 4e-05 M. Further, the IC90 in series [1] is 1100 µM.

Source of the values: patent US4803227A, “Aminoalkyl ethers of phenols as anticancer agents for the breast and colon” (The University of Manitoba, priority 1984, dated 1989).
